Test system: K98450-129-R-PDC multicell spheroids, viability
Assay: Anticancer human tumor K98450-129-R-PDC patient-derived colon adenocarcinoma cell line growth inhibition [PI3K]
Settings: for IC50: curve of first compound; for viability, T/C: stronger effect = lower value
In short: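 We assembled tumor spheroids that included a stromal compartment of HUVEC and MSCs, then exposed them to targeted agents alone and together with PI3K pathway inhibitors. Concentration series descended by half-log from clinically achievable Cmax levels. Viability served as the endpoint.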

[1] = second compound 0.00316 µM, first compound 0.0316 µM
[2] = second compound 0.00316 µM, first compound 0.1 µM
[3] = second compound 0.00316 µM, first compound 0.316 µM
[4] = second compound 0.00316 µM, first compound 1 µM
[5] = second compound 0.00316 µM, first compound 3.16 µM
[6] = second compound 0.00316 µM, first compound 10 µM
[7] = second compound 0.01 µM, first compound 0.0316 µM
[8] = second compound 0.01 µM, first compound 0.1 µM
[9] = second compound 0.01 µM, first compound 0.316 µM
[10] = second compound 0.01 µM, first compound 1 µM
[11] = second compound 0.01 µM, first compound 3.16 µM
[12] = second compound 0.01 µM, first compound 10 µM
[13] = second compound 0.0316 µM, first compound 0.0316 µM
[14] = second compound 0.0316 µM, first compound 0.1 µM
[15] = second compound 0.0316 µM, first compound 0.316 µM
[16] = second compound 0.0316 µM, first compound 1 µM
[17] = second compound 0.0316 µM, first compound 3.16 µM
[18] = second compound 0.0316 µM, first compound 10 µM
[19] = second compound 0.1 µM, first compound 0.0316 µM
[20] = second compound 0.1 µM, first compound 0.1 µM
[21] = second compound 0.1 µM, first compound 0.316 µM
[22] = second compound 0.1 µM, first compound 1 µM
[23] = second compound 0.1 µM, first compound 3.16 µM
[24] = second compound 0.1 µM, first compound 10 µM
[25] = second compound 0.316 µM, first compound 0.0316 µM
[26] = second compound 0.316 µM, first compound 0.1 µM
[27] = second compound 0.316 µM, first compound 0.316 µM
[28] = second compound 0.316 µM, first compound 1 µM
[29] = second compound 0.316 µM, first compound 3.16 µM
[30] = second compound 0.316 µM, first compound 10 µM
[31] = second compound 1 µM, first compound 0.0316 µM
[32] = second compound 1 µM, first compound 0.1 µM
[33] = second compound 1 µM, first compound 0.316 µM
[34] = second compound 1 µM, first compound 1 µM
[35] = second compound 1 µM, first compound 3.16 µM
[36] = second compound 1 µM, first compound 10 µM
[37] = second compound 3.16 µM, first compound 0.0316 µM
[38] = second compound 3.16 µM, first compound 0.1 µM
[39] = second compound 3.16 µM, first compound 0.316 µM
[40] = second compound 3.16 µM, first compound 1 µM
[41] = second compound 3.16 µM, first compound 3.16 µM
[42] = second compound 3.16 µM, first compound 10 µM
[43] = second compound 10 µM, first compound 0.0316 µM
[44] = second compound 10 µM, first compound 0.1 µM
[45] = second compound 10 µM, first compound 0.316 µM
[46] = second compound 10 µM, first compound 1 µM
[47] = second compound 10 µM, first compound 3.16 µM
[48] = second compound 10 µM, first compound 10 µM
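Also: spheroids exposed to agents for seven days before read-out.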

CC1(C)CCC(CN2CCN(c3ccc(C(=O)NS(=O)(=O)c4ccc(NCC5CCOCC5)c([N+](=O)[O-])c4)c(Oc4cnc5[nH]ccc5c4)c3)CC2)=C(c2ccc(Cl)cc2)C1 + CC(Nc1ccc2c(c1)OCCn1cc(N3C(=O)OCC3C(F)F)nc1-2)C(N)=O
IC50 (second compound 0.00316 µM): 5.72 µM | IC50 (second compound 0.01 µM): 5.95 µM | IC50 (second compound 0.0316 µM): 5.96 µM | IC50 (second compound 0.1 µM): 5.68 µM | IC50 (second compound 0.316 µM): 5.6 µM | IC50 (second compound 1 µM): 5.38 µM | viability, T/C [1]: 105% | viability, T/C [2]: 105% | viability, T/C [3]: 99.9% | viability, T/C [4]: 103% | viability, T/C [5]: 96.5% | viability, T/C [6]: 6.21% | viability, T/C [7]: 111% | viability, T/C [8]: 98.7% | viability, T/C [9]: 109% | viability, T/C [10]: 104% | viability, T/C [11]: 103% | viability, T/C [12]: 6.45% | viability, T/C [13]: 106% | viability, T/C [14]: 107% | viability, T/C [15]: 106% | viability, T/C [16]: 99.6% | viability, T/C [17]: 99.8% | viability, T/C [18]: 9.42% | viability, T/C [19]: 98.2% | viability, T/C [20]: 104% | viability, T/C [21]: 103% | viability, T/C [22]: 102% | viability, T/C [23]: 95.2% | viability, T/C [24]: 6.43% | viability, T/C [25]: 97.9% | viability, T/C [26]: 92.8% | viability, T/C [27]: 101% | viability, T/C [28]: 85.3% | viability, T/C [29]: 96.3% | viability, T/C [30]: 4.55% | viability, T/C [31]: 86.6% | viability, T/C [32]: 88.1% | viability, T/C [33]: 89.8% | viability, T/C [34]: 90.2% | viability, T/C [35]: 85.2% | viability, T/C [36]: 8.82%

Cn1nccc1Nc1nccc(-c2ccn(C(CO)c3ccc(Cl)c(F)c3)c(=O)c2)n1 (stereo not given) + CC(Nc1ncnc2nc[nH]c12)c1cc2cccc(Cl)c2c(=O)n1-c1ccccc1
IC50 (second compound 0.0316 µM): > 10 µM | IC50 (second compound 0.1 µM): > 10 µM | IC50 (second compound 0.316 µM): > 10 µM | IC50 (second compound 1 µM): > 10 µM | IC50 (second compound 3.16 µM): > 10 µM | IC50 (second compound 10 µM): > 10 µM | viability, T/C [13]: 110% | viability, T/C [14]: 102% | viability, T/C [15]: 103% | viability, T/C [16]: 94.5% | viability, T/C [17]: 88.9% | viability, T/C [18]: 85.8% | viability, T/C [19]: 106% | viability, T/C [20]: 100% | viability, T/C [21]: 91.3% | viability, T/C [22]: 93.5% | viability, T/C [23]: 94.6% | viability, T/C [24]: 87% | viability, T/C [25]: 94.5% | viability, T/C [26]: 115% | viability, T/C [27]: 91.6% | viability, T/C [28]: 92.7% | viability, T/C [29]: 96.6% | viability, T/C [30]: 56.8% | viability, T/C [31]: 89.5% | viability, T/C [32]: 103% | viability, T/C [33]: 94.6% | viability, T/C [34]: 85.4% | viability, T/C [35]: 94% | viability, T/C [36]: 81.4% | viability, T/C [37]: 79.2% | viability, T/C [38]: 86.2% | viability, T/C [39]: 95% | viability, T/C [40]: 93.8% | viability, T/C [41]: 106% | viability, T/C [42]: 84.6% | viability, T/C [43]: 90% | viability, T/C [44]: 80% | viability, T/C [45]: 78.9% | viability, T/C [46]: 87.2% | viability, T/C [47]: 80.7% | viability, T/C [48]: 66.3%

CC1(C)CCC(Nc2ncc(C(F)(F)F)c(-c3c[nH]c4c(P(C)(C)=O)c(C#N)ccc34)n2)CN1 (stereo not given) + COc1c(OCCCN2CCOCC2)ccc2c3n(c(=NC(=O)c4cnc(N)nc4)nc12)CCN3
IC50 (second compound 0.00316 µM): > 10 µM | IC50 (second compound 0.01 µM): > 10 µM | IC50 (second compound 0.0316 µM): 6.6 µM | IC50 (second compound 0.1 µM): 9.23 µM | IC50 (second compound 0.316 µM): 4.72 µM | IC50 (second compound 1 µM): 0.0316 µM | viability, T/C [1]: 104% | viability, T/C [2]: 99.5% | viability, T/C [3]: 66.3% | viability, T/C [4]: 60.1% | viability, T/C [5]: 60.3% | viability, T/C [6]: 52.9% | viability, T/C [7]: 113% | viability, T/C [8]: 103% | viability, T/C [9]: 67.3% | viability, T/C [10]: 61.6% | viability, T/C [11]: 67.3% | viability, T/C [12]: 48.8% | viability, T/C [13]: 94.6% | viability, T/C [14]: 77.5% | viability, T/C [15]: 68.5% | viability, T/C [16]: 69.4% | viability, T/C [17]: 61.6% | viability, T/C [18]: 42.7% | viability, T/C [19]: 79.6% | viability, T/C [20]: 86.6% | viability, T/C [21]: 63.7% | viability, T/C [22]: 69% | viability, T/C [23]: 68.7% | viability, T/C [24]: 46.1% | viability, T/C [25]: 58.3% | viability, T/C [26]: 64% | viability, T/C [27]: 59% | viability, T/C [28]: 54.7% | viability, T/C [29]: 57.8% | viability, T/C [30]: 37.3% | viability, T/C [31]: 51.6% | viability, T/C [32]: 48.9% | viability, T/C [33]: 48.8% | viability, T/C [34]: 42.7% | viability, T/C [35]: 50.7% | viability, T/C [36]: 27.2%

C[C@@H](NC(=O)c1ncnc(N)c1Cl)c1ncc(C(=O)Nc2cc(C(F)(F)F)c(Cl)cn2)s1 + COc1c(OCCCN2CCOCC2)ccc2c3n(c(=NC(=O)c4cnc(N)nc4)nc12)CCN3
IC50 (second compound 0.00316 µM): > 10 µM | IC50 (second compound 0.01 µM): > 10 µM | IC50 (second compound 0.0316 µM): > 10 µM | IC50 (second compound 0.1 µM): > 10 µM | IC50 (second compound 0.316 µM): > 10 µM | IC50 (second compound 1 µM): 4.39 µM | viability, T/C [1]: 119% | viability, T/C [2]: 119% | viability, T/C [3]: 108% | viability, T/C [4]: 117% | viability, T/C [5]: 133% | viability, T/C [6]: 95% | viability, T/C [7]: 108% | viability, T/C [8]: 93.7% | viability, T/C [9]: 115% | viability, T/C [10]: 108% | viability, T/C [11]: 105% | viability, T/C [12]: 95.9% | viability, T/C [13]: 83.5% | viability, T/C [14]: 96% | viability, T/C [15]: 97.4% | viability, T/C [16]: 93% | viability, T/C [17]: 109% | viability, T/C [18]: 78.7% | viability, T/C [19]: 76% | viability, T/C [20]: 87% | viability, T/C [21]: 98.4% | viability, T/C [22]: 90.3% | viability, T/C [23]: 101% | viability, T/C [24]: 70.9% | viability, T/C [25]: 54.8% | viability, T/C [26]: 71.6% | viability, T/C [27]: 65.2% | viability, T/C [28]: 69.2% | viability, T/C [29]: 68.2% | viability, T/C [30]: 51.1% | viability, T/C [31]: 58.3% | viability, T/C [32]: 55% | viability, T/C [33]: 51.1% | viability, T/C [34]: 62.1% | viability, T/C [35]: 59.6% | viability, T/C [36]: 37.1%

CCCS(=O)(=O)Nc1ccc(F)c(C(=O)c2c[nH]c3ncc(-c4ccc(Cl)cc4)cc23)c1F + CC(Nc1ncnc2nc[nH]c12)c1cc2cccc(Cl)c2c(=O)n1-c1ccccc1
IC50 (second compound 0.0316 µM): 5.17 µM | IC50 (second compound 0.1 µM): 6.03 µM | IC50 (second compound 0.316 µM): 5.29 µM | IC50 (second compound 1 µM): 5.51 µM | IC50 (second compound 3.16 µM): 5.87 µM | IC50 (second compound 10 µM): 5.53 µM | viability, T/C [13]: 118% | viability, T/C [14]: 97.9% | viability, T/C [15]: 106% | viability, T/C [16]: 113% | viability, T/C [17]: 85.5% | viability, T/C [18]: 2.37% | viability, T/C [19]: 127% | viability, T/C [20]: 94.6% | viability, T/C [21]: 121% | viability, T/C [22]: 112% | viability, T/C [23]: 109% | viability, T/C [24]: 3.82% | viability, T/C [25]: 96.8% | viability, T/C [26]: 97.2% | viability, T/C [27]: 101% | viability, T/C [28]: 111% | viability, T/C [29]: 89% | viability, T/C [30]: 1.77% | viability, T/C [31]: 97% | viability, T/C [32]: 104% | viability, T/C [33]: 101% | viability, T/C [34]: 120% | viability, T/C [35]: 93.7% | viability, T/C [36]: 2.88% | viability, T/C [37]: 97.1% | viability, T/C [38]: 102% | viability, T/C [39]: 95.3% | viability, T/C [40]: 112% | viability, T/C [41]: 114% | viability, T/C [42]: 3.24% | viability, T/C [43]: 96.2% | viability, T/C [44]: 102% | viability, T/C [45]: 105% | viability, T/C [46]: 102% | viability, T/C [47]: 94.2% | viability, T/C [48]: 3.07%
